Here are results for one compound from US10913781B2, “Pepducin design and use” (Tufts Medical Center, Inc., priority 2011, dated 2021).

The target of this experiment is T1, PAR1 (Homo sapiens, UniProt P25116).
T1 sequence (P25116 22-425): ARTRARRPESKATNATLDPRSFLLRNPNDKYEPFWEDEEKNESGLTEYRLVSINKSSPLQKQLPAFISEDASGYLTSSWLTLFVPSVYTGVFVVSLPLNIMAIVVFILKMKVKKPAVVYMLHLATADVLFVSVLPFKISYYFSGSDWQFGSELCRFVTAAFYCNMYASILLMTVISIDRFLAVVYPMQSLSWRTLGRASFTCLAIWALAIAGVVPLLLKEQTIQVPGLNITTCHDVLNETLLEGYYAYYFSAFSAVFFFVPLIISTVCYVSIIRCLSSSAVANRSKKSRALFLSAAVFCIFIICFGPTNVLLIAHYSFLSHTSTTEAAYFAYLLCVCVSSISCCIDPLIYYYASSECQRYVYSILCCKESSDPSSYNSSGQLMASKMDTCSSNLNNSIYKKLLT
In words: Migration of primary patient lung tumor cells. Type of experiment: cell-based. On the set-up: endogenous in cells; host or cells: A549, HOP62, H1299, H522, H226, HOP92 lung carcinoma lines. The settings on record: primary lung tumors. Here is the method: FIG. 12 illustrates that PAR1 is a promigratory factor in lung cancer cells. (A-F): Inhibition of lung cancer migration in adenocarcinomas A549, HOP62, H1299 and H522, H226 squamous, and HOP92 large cell using PAR1 pepducins. Pepducins at […] (P1pal-7, P1pal-10S, P1pal-i1-11, or negative control P1pal-19EE) were added to the lower well. (G): Cell from primary lung tumors or nonmalignant control were pretreated with PAR1 pepducins and migration was determined (*P<0.05, **P<0.01).
Further experiments were carried out to determine whether migration of the primary carcinoma cell lines isolated from lung tumors could be inhibited by PAR1 pepducins (FIG. 12G). […] Likewise, the RWJ-56110 small-molecule antagonist of PAR1 (Andrade-Gordon, et al., Proc. Natl Acad Sci USA, 96 (1999), pp. 12257-12262) suppressed up to 55% of the migration of primary lung tumor cells toward NIH-3T3 conditioned media. The PAR1 antagonist pepducin P1pal-7 and P1pal-i1-11 had no effect on the low-expressing PAR1 cell line derived from benign lung tissue, which migrated poorly (FIG. 12G).

Consider `NCC[C@H](NC(=O)[C@H](Cc1ccc(F)c(F)c1)NC(=O)Nc1ccc2c(CN3CCCC3)cn(Cc3c(Cl)cccc3Cl)c2c1)C(=O)NCc1ccccc1` [RWJ-56110, reference compound], for which the “Inhibition of migration of primary lung tumor cells” value was “up to 55%”.
